Peptide text beside a SMILES is read from it. * marks the point of attachment. Hydrocinnamoyl = O=C(CCc1ccccc1)*
Assay: in vitro
Conditions: human, hela cells, % viability

Row | SMILES | viability at 28.5 h, 10 µM [%] | viability at 28.5 h, 10 µM (bulk resorufin, single well) [%]
1 | O=C(O)CCCCC/N=C1\CCc2ccccc2N1 [CBK286773] | 100 | –
2 | O=C(O)Cc1sc(Nc2ccccc2)nc1-c1ccccc1 [CBK286775] | 97.2 | –
3 | Cc1ccc(C(=O)O)cc1NC(=O)C(=O)NCC(c1ccccc1)N(C)C (stereo not drawn) [CBK286777] | 96.3 | –
4 | CCOc1ccc(C(C)(CC(N)=O)C(=O)O)cc1 (stereo not drawn) [CBK286778] | 97.9 | –
5 | CC(=O)Cc1c(C(=O)O)c(C)nn1-c1ccccc1 [CBK286779] | 104 | –
6 | O=C(O)CNC(=O)CCn1c(-c2ccccc2)cc2ccccc21 [CBK286780] | 99.2 | –
7 | CCn1cc(C(=O)N[C@H](C(=O)O)C(C)C)c(=O)c2cc3c(cc21)OCO3 [CBK286786] | 110 | –
8 | O=C(CC(CN1CCN(c2cccc(Cl)c2)CC1)C(=O)O)NCc1ccccc1 (stereo not drawn) [CBK286787] | 100 | –
9 | COc1cccc(NC(=O)CC(CN2CCN(c3ccccc3)CC2)C(=O)O)c1 (stereo not drawn) [CBK286789] | 90.7 | –
10 | CN1CCCN(CC(CC(=O)NCc2ccccc2)C(=O)O)CC1 (stereo not drawn) [CBK286791] | 86.6 | –
11 | Cn1c(=O)c2c(nc(Nc3ccc(Cl)cc3Cl)n2CC(=O)O)n(C)c1=O [CBK286792] | 90.5 | –
12 | CC1CC(C)CN(C(=O)NCCCCCC(=O)O)C1 (stereo not drawn) [CBK286793] | 89 | –
13 | O=C(COc1ccc(Br)cc1C(=O)O)NCCc1ccccc1 [CBK286796] | 95.3 | –
14 | COc1cccc(-c2nc(CC(=O)N3CCC(C(=O)O)CC3)cs2)c1 [CBK286797] | 92.3 | –
15 | O=C(O)C1CCN(C(=O)CCC2CCCCC2)CC1 [CBK286804] | 89.3 | –
16 | O=C(O)c1c2c(nc3ccccc13)CCN(Cc1ccccc1)C2 [CBK286805] | 87.4 | –
17 | Cc1cc(C)n(C(CC(=O)N2CCCCC2)C(=O)O)n1 (stereo not drawn) [CBK286806] | 85.6 | –
18 | CCn1cc(NCc2ccccc2Cl)c(C(=O)O)n1 [CBK286807] | 95.2 | –
19 | O=C(O)CC(C(=O)Nc1ccccc1)C1CCCO1 (stereo not drawn) [CBK286809] | 93 | –
20 | Cc1nc(OCC(=O)O)c(C#N)c2c1COC(C)(C)C2 [CBK286810] | 89.4 | –
21 | O=C(CC(CN1CCN(Cc2cccc(Cl)c2)CC1)C(=O)O)Nc1cccc(O)c1 (stereo not drawn) [CBK286811] | 88.9 | –
22 | O=C(O)C1CCCN(C(=O)Cn2ccc3ccc(OCc4ccccc4)cc32)C1 (stereo not drawn) [CBK286814] | 89.6 | –
23 | Cc1nc2n(c(=O)c1CCSc1ccccc1C(=O)O)CCCC2 [CBK286818] | 102 | –
24 | C[C@@H]1C[C@H](Nc2ccccc2)c2ccccc2N1C(=O)CCC(=O)O [CBK286820] | 95.8 | –

Row | SMILES | viability at 28.5 h, 10 µM [%] | viability at 28.5 h, 10 µM (bulk resorufin, single well) [%]
25 | COc1ccccc1N1CCN(CC(CC(=O)Nc2ccc3c(c2)OCO3)C(=O)O)CC1 (stereo not drawn) [CBK286822] | 95 | –
26 | O=C(O)c1ccccc1NC(=O)N1CCc2[nH]cnc2C1c1cccc(F)c1 (stereo not drawn) [CBK286824] | 93.7 | –
27 | O=C(O)c1nccnc1C(=O)N1CCN(c2ccc(Cl)cc2)CC1 [CBK286826] | 89.4 | –
28 | O=C(O)CC1NC(=O)C(Cc2ccccc2)NC1=O (stereo not drawn) [CBK286827] | 98.1 | –
29 | O=C(O)C1=CC(c2ccccc2)=NS(=O)(=O)N1 [CBK286828] | 108 | –
30 | Cc1cc(=O)oc2cc(OC(C)C(=O)NCC(=O)O)ccc12 (stereo not drawn) [CBK286829] | 106 | –
31 | CC1(C)C(C(=O)O)C1C(=O)NCCc1ccc(O)cc1 (stereo not drawn) [CBK286832] | 104 | –
32 | O=C(CC(CN1CCN(CCN2CCCC2)CC1)C(=O)O)Nc1ccccc1 (stereo not drawn) [CBK286833] | 109 | –
33 | C=C(C)CN1CCN(C(C(=O)O)c2c[nH]c3cc(F)ccc23)CC1 (stereo not drawn) [CBK286835] | 106 | –
34 | N#CC(CC(=O)O)C(Cc1ccccc1)c1ccccc1 (stereo not drawn) [CBK286837] | 107 | –
35 | O=C(O)CC(Cc1ccccc1)C(=O)Nc1ccc(F)cc1 (stereo not drawn) [CBK286841] | 96.1 | –
36 | COc1cccc(NC(=O)CC(CN2CCC(O)CC2)C(=O)O)c1 (stereo not drawn) [CBK286842] | 93 | –
37 | O=C(O)C1C2CCC(O2)C1C(=O)Nc1cnn(Cc2ccccc2)c1 (stereo not drawn) [CBK286849] | 96 | –
38 | CC1=CC(C)C(C(=O)O)C(C(=O)Nc2ccccc2)C1 (stereo not drawn) [CBK286851] | 90.4 | –
39 | O=C(CC1(C(=O)O)CCCC1)NC1CCS(=O)(=O)C1 (stereo not drawn) [CBK286855] | 92.3 | –
40 | O=C(O)CCC(=O)N1c2ccccc2CC1c1ccccc1 (stereo not drawn) [CBK286860] | 91.1 | –
41 | Cc1ccc2nc(SCCC(=O)O)cc(C)c2c1 [CBK286861] | 90.1 | –
42 | Cc1ccc(C(=O)O)cc1NC(=O)C(=O)NCC(c1ccccc1)N1CCN(C)CC1 (stereo not drawn) [CBK286864] | 92.4 | –
43 | O=C(CC(CN1CCN(Cc2ccccn2)CC1)C(=O)O)NCc1ccccc1 (stereo not drawn) [CBK286865] | 81.2 | –
44 | O=C(O)CC1(CNC(=O)Cn2nc(-c3ccccc3)ccc2=O)CCCCC1 [CBK286866] | 84.1 | –
45 | CCn1ncc(CN2CCN(C(=O)c3nn(C)cc3C(=O)O)CC2)c1C [CBK286870] | 89.3 | –
46 | Cn1c(C(=O)O)cc2cc(Oc3ccccc3)ccc21 [CBK286873] | 86.3 | –
47 | O=C(O)CNC(=O)CNC(=O)CCc1ccccc1 [CBK286874] (Hydrocinnamoyl-Gly-Gly-OH) | 87.1 | –
48 | Cc1nn(-c2ccccc2)c(C)c1CNC(=O)C1C2C=CC(C2)C1C(=O)O (stereo not drawn) [CBK286877] | 90.4 | –

Row | SMILES | viability at 28.5 h, 10 µM [%] | viability at 28.5 h, 10 µM (bulk resorufin, single well) [%]
49 | Cc1nn(C)c(C)c1CN(C)C(=O)CCCC(=O)O [CBK286879] | 82.8 | –
50 | O=C(O)CCn1c(=O)cc(C(F)F)c2cn(Cc3ccccc3)nc21 [CBK286881] | 91.3 | –
51 | O=C(O)COCc1cc(-c2ccc3c(c2)OCO3)on1 [CBK286883] | 110 | –
52 | CCn1nc(C)c(CN(C)C(=O)C2CC=CCC2C(=O)O)c1C (stereo not drawn) [CBK286884] | 86.1 | –
53 | O=C(O)CCc1nc2nc(-c3ccco3)cc(C(F)(F)F)n2n1 [CBK286889] | 86 | –
54 | CC1Cc2ccccc2N1C(=O)C1C2C=CC(O2)C1C(=O)O (stereo not drawn) [CBK286891] | 86.9 | –
55 | O=C(O)c1ccc(CSc2nc3ccccc3[nH]2)cc1 [CBK286892] | 82 | –
56 | CCC1CC(C(F)(F)F)n2ncc(C(=O)O)c2N1 (stereo not drawn) [CBK286893] | 85.2 | –
57 | O=C(O)CNC(=O)c1ccccc1NC(=O)c1ccco1 [CBK286894] | 90.2 | –
58 | O=C(O)C1CCN(C(=O)CCC(=O)N2CCN(c3ccccc3)CC2)CC1 [CBK286896] | 93.9 | –
59 | CC(C)CN1C(=O)c2ccc(C(=O)NCc3ccc(C(=O)O)cc3)cc2C1=O [CBK286898] | 116 | –
60 | CC1CN(CCC(=O)O)Cc2cc(Cl)ccc2O1 (stereo not drawn) [CBK286899] | 103 | –
61 | O=C(O)/C=C/c1ccccc1OCC(=O)NC1CCCCC1 [CBK286900] | 99.8 | –
62 | O=C(O)C1CC(=O)N(c2cccc3ccccc23)C1 (stereo not drawn) [CBK286902] | 88.8 | –
63 | O=C(O)C1CCCCC1C(=O)NCCCN1CCOCC1 (stereo not drawn) [CBK286903] | 83.4 | –
64 | O=C(O)C1=CC(c2c[nH]nc2-c2ccc(F)cc2)n2ncnc2N1 (stereo not drawn) [CBK286906] | 86.2 | –
65 | COc1ccc(Cl)cc1/C=C/C(=O)NCc1ccc(C(=O)O)cc1 [CBK286908] | 89.3 | –
66 | O=C(O)CC(NCc1ccco1)C(=O)Nc1cccc(F)c1 (stereo not drawn) [CBK286910] | 97 | –
67 | O=C(O)COc1cccc(NS(=O)(=O)c2ccc(Br)cc2)c1 [CBK286911] | 111 | –
68 | NC(CC(=O)O)c1ccc(F)c(Oc2ccccc2)c1 (stereo not drawn) [CBK286912] | 101 | –
69 | O=C(O)C1CCCCC1C(=O)NCCCN1CCCC1=O (stereo not drawn) [CBK286914] | 83.1 | –
70 | CN1CCN(NC(=O)C2C3C=CC(C3)C2C(=O)O)CC1 (stereo not drawn) [CBK286915] | 90.1 | –
71 | O=C(O)CCNS(=O)(=O)c1ccc2ccccc2c1 [CBK286920] | 98.6 | –
72 | O=C(O)[C@@H]1CSC(c2ccc(C(F)(F)F)cc2)N1 (stereo partly drawn) [CBK286921] | 87.7 | –

Row | SMILES | viability at 28.5 h, 10 µM [%] | viability at 28.5 h, 10 µM (bulk resorufin, single well) [%]
73 | O=C(O)CCc1nnc(S)n1Cc1ccccc1 [CBK286926] | 93.8 | –
74 | Cc1ccc(C2SCC(C(=O)O)N2C(=O)c2cccc(Cl)c2)cc1 (stereo not drawn) [CBK286931] | 93.3 | –
75 | O=C(O)c1cccn1-c1cc(Cl)cc(Cl)c1 [CBK286932] | 98.8 | –
76 | O=C1CC(/C=C/c2ccccc2)Cc2[nH]c(=O)c(C(=O)O)cc21 (stereo not drawn) [CBK286933] | 92.9 | –
77 | CSc1ccc([C@H]2[C@H](C(=O)O)CC(=O)N2Cc2ccccc2)cc1 [CBK286934] | 91.7 | –
78 | Cc1ccc(S(=O)(=O)N2CCN(C(=O)C3CCCCC3C(=O)O)CC2)cc1C (stereo not drawn) [CBK286936] | 97 | –
79 | CC(C)=C1C2CCC1C(C(=O)N1CCC3(CC1)OCCO3)C2C(=O)O (stereo not drawn) [CBK286937] | – | 92.7
80 | O=C(O)C1C2C=CC3(CN(C/C=C/c4ccccc4)C(=O)C13)O2 (stereo not drawn) [CBK286946] | 119 | –
81 | O=C(O)CCC(=O)Nc1nc(-c2ccccc2)cs1 [CBK286947] | 109 | –
82 | Cc1nn(Cc2cccc(C(=O)O)c2)c(C)c1Br [CBK286950] | 100 | –
83 | CCS(=O)(=O)c1ccc2cc(C(=O)O)[nH]c2c1 [CBK286951] | 101 | –
84 | O=C(O)CN1C(=O)C2CCC(c3ccccc3)CC2C1=O (stereo not drawn) [CBK286952] | 95.7 | –
85 | CC1(C(=O)O)CCC(C(=O)Nc2ccc(F)cc2)C1(C)C (stereo not drawn) [CBK286953] | 98.8 | –
86 | COc1ccc2nc(C)c(CCC(=O)O)c(O)c2c1 [CBK286955] | 98.8 | –
87 | O=C(O)CCC(=O)Nc1ccc(Oc2ccccc2)cc1 [CBK286957] | 88.9 | –
88 | Cc1c(C(=O)O)c(-c2ccc(Cl)cc2)cn1CCO [CBK286959] | 87 | –
89 | CC1CC(Nc2ccccc2)c2ccccc2N1C(=O)CCCC(=O)O (stereo not drawn) [CBK286960] | 89.3 | –
90 | O=C(O)CCc1nc2ccccc2n1C1CCCCC1 [CBK286961] | 87.5 | –
91 | Cc1ccc(S(=O)(=O)N2CCSC2C(=O)O)cc1 (stereo not drawn) [CBK286964] | 86.8 | –
92 | Cc1nc(=O)c(-c2ccccc2)c(C)n1-c1cccc(C(=O)O)c1 [CBK286965] | 94.3 | –
93 | O=C(O)c1cccc(N2N=C(c3ccccc3)CC2=O)c1 [CBK286966] | 96.5 | –

— paper PMC12040169 (PLOS Biology, 2025)
